Measured values as given in patent publication EP0908457B1, “3-(1,2-benzisothiazol- and isoxazol-5-Y1)-2,4(1H,3H)-pyrimidinedione or thione and 3-(1,2-benzisothiazol- and isoxazol-5-y1)-4(3H)-pyrimidinone or thione herbicidal agents” (BASF AKTIENGESELLSCHAFT, priority 1997, dated 1999).

Tests used:
[1] = system: Monochoria vaginalis, Presl.; test: Preemergence weed control under flooded paddy conditions, MOOVA (Monochoria); assay type: in vivo; conditions: preemergence, flooded paddy, rated three to four weeks after treatment
[2] = system: Cyperus serotinus, Rottb.; test: Preemergence weed control under flooded paddy conditions, CYPSE (Flatsedge); assay type: in vivo; conditions: preemergence, rated three to four weeks after treatment
Cyperus iria = test: Preemergence weed control under flooded paddy conditions, CYPIR (Rice Flatsedge); assay type: in vivo; conditions: preemergence, flooded paddy, rated three to four weeks after treatment
[3] = system: Oryza sativa, (L.) Tebonnet; test: Rice tolerance to post-transplant applications under flooded paddy conditions (Example 187), ORYSAT (Rice, Tebonnet); conditions: rated three to four weeks after treatment
[4] = system: Echinochloa oryzoides (Ard.) Fritsch.; test: Preemergence weed control under flooded paddy conditions, ECHORC (Watergrass (Calif.)); assay type: in vivo; conditions: preemergence, flooded paddy, rated three to four weeks after treatment
Sagittaria pygmaea, L. = test: Preemergence weed control under flooded paddy conditions, SAGPY (Arrowhead (Pygmaea)); assay type: in vivo; conditions: preemergence, flooded paddy, rated three to four weeks after treatment

COC(=O)COc1c(-c2nsc3ccc(-n4c(=O)cc(C(F)(F)F)n(C)c4=O)cc23)ccc(C)c1C [Example 274, Acetic acid, {{6-{5-[3,6-dihydro-3-methyl-2,6-dioxo-4-(trifluoromethyl)-1(2H)-pyrimidinyl]-1,2-benzisothiazol-3-yl}-2,3-xylyl}oxy}-, methyl ester]
2.0: CYPSE herbicidal effect rating ([2]; Rate 0.0620 kg/ha) | CYPIR herbicidal effect rating (Cyperus iria; Rate 0.5000 kg/ha) | ORYSAT herbicidal effect rating ([3]; Rate 0.0320 kg/ha)
3.3: ECHORC herbicidal effect rating ([4]; Rate 0.0320 kg/ha)
4.0: ORYSAT herbicidal effect rating ([3]; Rate 0.0620 kg/ha) | ORYSAT herbicidal effect rating ([3]; Rate 0.1250 kg/ha) | SAGPY herbicidal effect rating (Sagittaria pygmaea, L.; Rate 0.1250 kg/ha) | SAGPY herbicidal effect rating (Sagittaria pygmaea, L.; Rate 0.5000 kg/ha)
8.0: CYPSE herbicidal effect rating ([2]; Rate 0.1250 kg/ha) | CYPIR herbicidal effect rating (Cyperus iria; Rate 0.0620 kg/ha) | ORYSAT herbicidal effect rating ([3]; Rate 0.2500 kg/ha)
7.0: CYPIR herbicidal effect rating (Cyperus iria; Rate 0.0320 kg/ha) | ORYSAT herbicidal effect rating ([3]; Rate 0.5000 kg/ha)
4.1: ECHORC herbicidal effect rating ([4]; Rate 0.0620 kg/ha)
9.0: MOOVA herbicidal effect rating ([1]; Rate 0.0320 kg/ha) | MOOVA herbicidal effect rating ([1]; Rate 0.0620 kg/ha) | MOOVA herbicidal effect rating ([1]; Rate 0.1250 kg/ha) | MOOVA herbicidal effect rating ([1]; Rate 0.2500 kg/ha) | MOOVA herbicidal effect rating ([1]; Rate 0.5000 kg/ha) | CYPSE herbicidal effect rating ([2]; Rate 0.2500 kg/ha) | CYPSE herbicidal effect rating ([2]; Rate 0.5000 kg/ha) | CYPIR herbicidal effect rating (Cyperus iria; Rate 0.1250 kg/ha) | CYPIR herbicidal effect rating (Cyperus iria; Rate 0.2500 kg/ha) | ECHORC herbicidal effect rating ([4]; Rate 0.2500 kg/ha) | ECHORC herbicidal effect rating ([4]; Rate 0.5000 kg/ha) | SAGPY herbicidal effect rating (Sagittaria pygmaea, L.; Rate 0.2500 kg/ha)
0.0: CYPSE herbicidal effect rating ([2]; Rate 0.0320 kg/ha) | SAGPY herbicidal effect rating (Sagittaria pygmaea, L.; Rate 0.0320 kg/ha) | SAGPY herbicidal effect rating (Sagittaria pygmaea, L.; Rate 0.0620 kg/ha)
5.9: ECHORC herbicidal effect rating ([4]; Rate 0.1250 kg/ha)
